In data set [1] the test system is ovariectomy-induced osteoporotic mice. It counts as in vivo. The following applies: μCT, mean ± SEM, 10 mg/kg weekly IP, 9 weeks.
The subject of data set [2] is human primary osteoclasts. Nature of the data set: human primary osteoclast differentiation (RANKL, TRAP staining). The following applies: 0.001-10 μM, 7 days, 30 ng/mL RANKL. It counts as cell-based. Here is the method:
Human bone marrow was obtained from 4 OA patients who underwent hip replacement surgery and all protocols were approved by the NYU School of Medicine’s IRB. Precursor cells were flushed out from femoral head with DMEM media with 10% fetal bovine serum (FBS), and 100 U/ml of penicillin and streptomycin (Lonza, Belgium) in sterile conditions and incubated for 48h non-adherent cells were collected and differentiated to osteoclasts and adherents cell were differentiated to osteoblasts as previously described.
Osteoclast differentiation was assessed by TRAP staining by incubating PFA fixed samples with TRAP buffer (0.1M acetate buffer, 0.3M sodium tartrate, 10mg/ml Naphthol AS-MX phosphate, 0.1% Triton X-100, 0.3mg/ml Fast Red Violet LB (Sigma-Aldrich, St. Louis, MO, USA)) for 10 min. Images were taken in a Leica (Morrisville, NC, USA) inverted microscope.

For data set [3] the following is noted: cited from earlier work.
Data set [4] deals with UHMWPE-induced osteolytic mice (WT). Nature of the data set: UHMWPE wear particle-induced osteolysis (OL) in WT mice calvaria. It counts as in vivo, mouse. Particulars: doses <10mg/kg/week, data not shown.
Data set [5] deals with human primary osteoclasts. On the set-up: method as in PMID 23647065, PMID 25573752. The following applies: previously demonstrated; cited from earlier work.

Results on 3 compounds are retold here after paper PMC9733060, “Novel alendronate-CGS21680 conjugate reduces bone resorption and induces new bone formation in post-menopausal osteoporosis and inflammatory osteolysis mouse models” (Arthritis Research & Therapy, 2022).

Like-named read-outs stand apart in the source and are kept apart here. Marks after values point to notes of the source that are not given here.

As for `NCCCC(O)(P(=O)(O)O)P(=O)(O)O` [Alendronate, alendronic acid], in data set [1] (L5 vertebra trabecular bone), the BS/BV is given as 71.26 ± 2.80* 1/mm, the BV/TV is on record as 12.34 ± 0.74 %, the Tb.N is recorded as 2.60 ± 0.21 * 1/mm and the Tb.Pf is listed as 13.73 ± 1.23 # 1/mm. In data set [1] (L5 vertebra trabecular bone), this compound registered a Tb.Sp of 0.298 ± 0.012 μm and a Tb.Th of 0.047 ± 0.002 μm. In addition, in data set [1] (femur cortical bone), the BV was 0.442 ± 0.014 * mm^3, the BV/TV stood at 44.50 ± 1.03 and the TV is listed as 0.994 ± 0.042 mm^3. In data set [1] (femur trabecular bone), the BS/BV is given as 89.18 ± 4.61 1/mm, the BV/TV was 0.771 ± 0.210 %, the Tb.N was 0.164 ± 0.043 # 1/mm and the Tb.Pf is given as 37.43 ± 2.48 1/mm. Further, in data set [1] (femur trabecular bone), the Tb.Sp was 0.702 ± 0.100 # μm and the Tb.Th amounted to 0.0468 ± 0.0014 μm. Besides, the “inhibition of osteoclast differentiation (anti-osteoclastogenic properties)” value in data set [2] is given as “more potent than AlenP”. In data set [3], the “time for kidneys to excrete the amount not taken up by bone tissues” value is not above 24 h. In data set [3] (humans), the “elimination from bone tissue” value is recorded as “up to 12 years”.

For `CCNC(=O)[C@H]1O[C@@H](n2cnc3c(N)nc(NCCc4ccc(CCC(=O)O)cc4)nc32)[C@H](O)[C@@H]1O` [CGS21680, 2-[p-(2-carboxyethyl)-phenethylamino]-5'-N-ethylcarboxamido adenosine], the “effect on bone density in the affected areas” value in data set [4] is “none of the doses tested <10mg/kg/week had any effect on bone density”.

On to `Nc1nc(NCCc2ccc(O)cc2)nc2nc(-c3ccco3)nn12` [ZM21385], for which the “effect on osteoclast differentiation” value in data set [5] was “increases osteoclast differentiation”.
